Legend:
IKKy/NEMO = test: Cellular protein translation in 293T cells (anti-IKKy/NEMO immunoblotting); type: cell-based, human; conditions: 10 h and 24 h; for anti-IKKy/NEMO signal (cellular protein translation): 100 nM
Protocol: 293T cells were grown in the presence of the known translation inhibitor cycloheximide (10 μg/ml) and 100 nM of IMD-019064, IMD-026259 and IMD-026260 respectively. […] Cells were harvested after 10 h and 24 h and cell lysates were produced. Equal amounts of protein contained in the cell lysates were used for immunoblotting with anti-IKKy/NEMO antibodies as shown in FIG. 12. IKKy/NEMO is a constitutively expressed relatively labile protein. Thus successful inhibition of cellular protein translation should result in significant decline of anti-IKKy/NEMO signal.

HIF-1α mRNA = test: Hif-1α mRNA expression by real-time PCR; type: cell-based; conditions: human cells, 250 nM for 3 h, normoxic or hypoxic (45 minutes, 1% O2)
Protocol: In order to investigate whether the compounds of the invention do exert their HIF-1-1 suppressive action via inhibition of HIF-1-1 transcription the compounds were tested for their effects on HIF-1α mRNA production. In all experiments, human cells were exposed to efficiently blocking concentrations (250 nM) of the test compounds for 3 h. Then cells were further cultivated under normoxic or hypoxic conditions (45 minutes, 1% O2) respectively. Afterwards cell samples were harvested and RNA was extracted. cDNA was synthesized using specific primers and the PE Applied Biosystems Reverse Transcription Reagents. Real-time PCR was performed by using the SYBR Green I detection chemistry (Applied Biosystems) and an ABI Prism 7300 system. The expression of Hif-1α was quantified and results were normalized to Hprt1 and β-Actin (“housekeeping-gene”) expression. The relative abundance of the different genes was calculated by the comparative CT method. HIF-1α transcription of normoxic control cells was arbitrarily set to 1. […] Therefore an effect of IMD-compounds on HIF-1-dependent gene expression seems not to be mediated on HIF-1α transcription (FIG. 5).

[1] = tested on: cell-free protein translation (BMV mRNA, ribosomes); test: Cell-free protein translation of Brome mosaic virus (BMV) mRNA with ribosomes; type: biochemical; conditions: for effect on in vitro protein translation: relevant (nM) concentrations, SDS-PAGE
Protocol: The effect of IMD-019064 on cell-free protein translation in vitro was investigated (see also assay principle in FIG. 8). Brome mosaic virus (BMV) mRNA encoding for 4 different viral proteins was incubated with ribosomes in the presence and absence of IMD-019064 (FIG. 9a), IMD-026259, IMD-026260 (FIG. 9b), or cycloheximide (Chx, 10 μM) (positive control) and the formed proteins analyzed by SDS-PAGE.
Panels show representative SDS-PAGE protein gels. Vehicle-containing translation reactions (Veh) represent 100% translation efficacy, while Cycloheximide (Chx; 10 μg/ml) a known inhibitor of protein translation that was used as a positive control does show significant protein reduction.

NHDF (fibroblast) = NHDF (fibroblast) spheroid sprouting/scattering in 3D collagen gel; type: cell-based; conditions: Homo sapiens, 24 h, read-out: IC50, NHDF fibroblast spheroid sprouting/scattering
Protocol: Prior application the stock solution [100 mM] of IMD-019064 was diluted 1:10 in DMSO and serially diluted in half logarithmic steps covering the concentration range from 10 mM to 1 μM using 100% DMSO. The final assay concentration ranged from 100 μM to 10 nM with a final DMSO concentration in the assay of 1%. The experiments were pursued in modification of the originally published protocol (Korff and Augustin: J Cell Sci 112: 3249-58, 1999). In brief, spheroids were prepared as described by Korff and Augustin: J Cell Biol 143: 1341-52, 1998) by pipetting 500 endothelial cells (EC) in a hanging drop on plastic dishes to allow overnight spheroid aggregation. […]
Plates were incubated at 37° C. for 24 hours and fixed by adding 4% paraformaldehyde. The cumulative sprout length of 10 randomly selected spheroids per data point was analyzed and the relative inhibition by the test compound determined. […] Sprouting intensity of EC and fibroblast spheroids was quantitated by an image analysis system using an inverted microscope and the digital imaging software Analysis 3.2 (Soft imaging system, Munster, Germany). […] The cumulative sprout length of 10 randomly selected spheroids per data point was analyzed according to the procedure used for the HUVEC experiment. […]

HIF-1 = test: HIF-1-dependent luciferase reporter gene activity in 293T cells under hypoxia; type: cell-based, human; conditions: for time-dependency of inhibition of HIF-1-dependent luciferase expression: 250 nM, added 4 hours after induction of hypoxia (8 h, 1% O2)
Protocol: A HIF-1-dependent luciferase reporter gene was transfected into 293T cells by transfection with Rotifect™ (Trademarked by Carl Roth GmbH; Karlsruhe, Germany) or alternatively into Jurkat T cells by electroporation. Both cell lines were transfected with a HIF-1-dependent reporter gene. The next day, cells were preincubated for 1 h with the indicated, submicromolar concentrations of the test compounds and then incubated for further 8 h under normoxic or hypoxic (1% O2) conditions. After that, cells were harvested followed by the analysis of luciferase activity in a luminometer.
A HIF-1-dependent luciferase reporter gene was transfected into 293T cells. The next morning, cells were pretreated for 1 h with the indicated concentrations of compounds, followed by induction of hypoxia (hypoxia chamber) for 8 h. Subsequently cells were harvested and lyzed. Luciferase activity in cell extracts was measured in a luminometer (Duo Lumat LB 9507, Berthold) by injecting 20 microliter of assay buffer to 20 microliter of extract. Light emission was measured for 10 s, relative light units are given.
After transfection of 293T cells with a HIF-1-dependent luciferase reporter gene, cells were further incubated under normoxic or hypoxic (8 h, 1% O2) conditions as shown in FIG. 4. Effectively blocking concentrations of the IMDs (250 nM each) were added either 1 hour prior to hypoxia or 2 and 4 hours after induction of hypoxia.

HUVEC [2] = test: Spheroid-based angiogenesis assay, Deferoxamine (hypoxia) induced HUVEC sprouting; type: cell-based, human
Protocol: Prior application the stock solution [100 mM] of IMD-019064 was diluted 1:10 in DMSO and serially diluted in half logarithmic steps covering the concentration range from 10 mM to 1 μM using 100% DMSO. The final assay concentration ranged from 100 μM to 10 nM with a final DMSO concentration in the assay of 1%. The experiments were pursued in modification of the originally published protocol (Korff and Augustin: J Cell Sci 112: 3249-58, 1999). In brief, spheroids were prepared as described by Korff and Augustin: J Cell Biol 143: 1341-52, 1998) by pipetting 500 endothelial cells (EC) in a hanging drop on plastic dishes to allow overnight spheroid aggregation. 50 EC spheroids were then embedded in 0.9 ml of a 3D collagen matrix and pipetted into individual wells of a 24 well plate to allow polymerization.
Plates were incubated at 37° C. for 24 hours and fixed by adding 4% paraformaldehyde. The cumulative sprout length of 10 randomly selected spheroids per data point was analyzed and the relative inhibition by the test compound determined. Fitting of IC50 curves and calculation of IC50 values was performed with GraphPad Prism 5.01. Sprouting intensity of EC and fibroblast spheroids was quantitated by an image analysis system using an inverted microscope and the digital imaging software Analysis 3.2 (Soft imaging system, Munster, Germany). In parallel NHDF (fibroblast) spheroids were embedded in a 3D collagen gel and treated for 24 h with different concentrations of IMD-019064. The cumulative sprout length of 10 randomly selected spheroids per data point was analyzed according to the procedure used for the HUVEC experiment.
The same assays were performed with IMD-026260; IMD-026259; Sutent® (Sunitinib) and Sorafenib (Nexavar®) (see Table 3 for final compound concentrations).

HIF-1α protein = test: Hypoxia induced HIF-1α protein accumulation in 293T cells (immunoblotting); type: cell-based, human; conditions: 250 nM, 1 h preincubation, hypoxia 4 h, 1% O2
Protocol: Effects of IMD-026259, IMD-026260 and IMD-019064 on the stabilisation/accumulation of HIF-1α protein were investigated. 293T cells were preincubated with the indicated concentrations of all three compounds. After 1 h of pre-incubation, 293T cells were pre-incubated with the indicated concentrations of compounds and then further incubated under normoxic or hypoxic (4 h, 1% O2) conditions respectively. After lysis of cells in 1×SDS sample buffer and sonication, the samples were analyzed for HIF-1α abundance by immunoblotting.

endothelial cells = test: Incorporation of radiolabeled amino acids into unstimulated and IL-1b-stimulated endothelial cells; type: cell-based
Protocol: Compounds of the formula (I) have been reported in the literature to be un-specific inhibitors of protein synthesis. Thus, the question whether IMD-019064 (a rocaglaol derivative) is a direct inhibitor of protein synthesis has been addressed at different levels. Cellular assays (incorporation of radiolabeled amino acids into unstimulated and IL-1b-stimulated endothelial cells) were performed in order to investigate if inhibition of activated signaling cascades (e.g. IL-1 signalling pathway) may contribute to inhibitory activity of IMD-019064.

HUVEC [3] = test: Spheroid-based angiogenesis assay, VEGF-A induced HUVEC sprouting; type: cell-based, human; conditions: after hypoxic or VEGF induction, summary statement
Protocol: As described in Example 4 HUVEC spheroids were generated, cultivated and embedded in a 3D collagen gel and stimulated with Vascular Endothelial Growth Factor alpha [VEGF-A; 25 ng/ml] instead of deferoxamine. Cell spheroids were treated for 24 h with different concentrations of IMD-026259; IMD-026260; Sutent® (Sunitinib) and Sorafenib (Nexavar®) (in Molar [M], as indicated in Table 4; see also FIG. 14A).
The cumulative sprout length of 10 randomly selected spheroids per data point was analyzed and the relative inhibition by the test compound determined. Fitting of IC50 curves and calculation of IC50 values was performed with GraphPad Prism® 5.01 (trademarked by GraphPad Software Inc.). […] Results from the examples described above are summarized in FIG. 14b IC50 values are given in nM for in vitro angiogenesis (HUVEC sprouting) studies after hypoxic or VEGF induction.

[4] = tested on: PDK1 (pyruvate dehydrogenase kinase1); test: HIF-1 target gene PDK1 expression in 293T cells by real-time PCR; type: cell-based; conditions: Homo sapiens, HEK-293T, 1 h pretreatment, 8 h hypoxia, read-out: IC50, suppression of endogenous PDK1 gene expression
Protocol: Human 293T cells were cultivated either under normoxic conditions or under hypoxic conditions (1% oxygen) for 4 and 8 hs respectively. Cells were harvested, followed by the isolation of RNA and the generation of cDNAs from Oligo (dT)20 primers using a Reverse Transcriptase kit. Then gene expression was measured by real-time PCR for the following two selected HIF-1α target genes: LDH-A (lactate dehydrogenase isoform A), and PDK1 (pyruvate dehydrogenase kinase1). Real-time PCR was performed with cDNA using specific primers and the SYBR Green I detection chemistry system (Applied Biosystems), utilizing an ABI Prism 7300 system. Actin was also measured as an internal control. The relative abundance of the different genes was calculated by the comparative CT method. In order to facilitate comparison, gene expression under normoxic conditions was arbitrarily set to 1 for each of the three genes. Two independent experiments confirmed PDK1 as the gene which was induced most prominently compared to LDH.
To investigate the capability of the compounds to inhibit PDK1, 293T cells were pretreated for 1 h with 3 different concentrations of the respective inhibitors (IMD-019064; IMD-026259; and IMD-026260). Subsequently, cells were incubated under normoxic/hypoxic conditions for further 8 h and the expression of PDK1 was quantified by real-time PCR as described above.

## COc1ccc(C23Oc4cc(OC)cc(OC)c4C2(O)C(O)CC3c2cccc(F)c2)cc1 (centres unmarked) [IMD-019064, (1,3,3a,8b)-3-(3-fluorophenyl)-6,8-dimethoxy-3a-(4-methoxyphenyl)-2,3,3a,8b-tetrahydro-1H-benzo[d]cyclopenta[b]furan-1,8b-diol]
IKKy/NEMO
  anti-IKKy/NEMO signal (cellular protein translation): did not result in reduced anti-IKKy/NEMO signals
HIF-1α mRNA
  effect on Hif-1α mRNA production: did not show any effects
[1]
  effect on in vitro protein translation: No significant effect
NHDF (fibroblast)
  IC50: 180 nM
HIF-1
  time-dependency of inhibition of HIF-1-dependent luciferase expression: able to inhibit HIF-1-dependent luciferase expression even when added 4 hours after hypoxic induction
HUVEC [2]; Homo sapiens, HUVEC, 24 h, read-out: IC50, hypoxia induced EC (HUVEC) sprouting
  IC50: 30 nM
HUVEC [2]; NHDF IC50 versus Deferoxamine-induced HUVEC IC50
  difference in HUVEC and fibroblast sensitivity: factor six
HIF-1α protein
  block of HIF-1α protein accumulation: almost completely block
Endothelial cells
  shift of the dose-response curve to higher concentrations, un-stimulated compared to IL-1 stimulated cells, inhibition of amino acid incorporation: 20 factor
HUVEC [3]
  inhibition of angiogenic sprouting in vitro (HUVEC sprouting): potent inhibitors of angiogenic sprouting in vitro

## OC1CC(c2ccccc2)C2(c3ccc(Cl)cc3)Oc3cc(OCCN4CCCC4)ccc3C12O (centres unmarked) [IMD-026259, (1,3a,8b)-3a-(4-chlorophenyl)-3-phenyl-6-(2-(pyrrolidin-1-yl)ethoxy)-2,3,3a,8b-tetrahydro-1H-benzo[d]cyclopenta[b]furan-1,8b-diol]
[4]
  IC50: 9 nM
IKKy/NEMO
  anti-IKKy/NEMO signal (cellular protein translation): did not result in reduced anti-IKKy/NEMO signals
HIF-1α mRNA
  effect on Hif-1α mRNA production: did not show any effects
[1]
  effect on in vitro protein translation: No significant effect
HIF-1
  time-dependency of inhibition of HIF-1-dependent luciferase expression: able to inhibit HIF-1-dependent luciferase expression even when added 4 hours after hypoxic induction
HIF-1; Homo sapiens, HEK-293T, 1 h pretreatment, hypoxia 8 h, read-out: IC50, HIF-1 luciferase inhibitory activity
  IC50: 19 nM
HUVEC [3]
  inhibition of angiogenic sprouting in vitro (HUVEC sprouting): potent inhibitors of angiogenic sprouting in vitro

## CNC(=O)c1cc(Oc2ccc(NC(=O)Nc3ccc(Cl)c(C(F)(F)F)c3)cc2)ccn1 [Nexavar, Sorafenib, reference compound]
HUVEC [2]; HUVECs induced by Deferoxamine (hypoxia)
  activity on HUVEC sprouting: did not show any activity at all

## C[C@@H]1C[C@@H]([C@H](O)CC2CC(=O)NC(=O)C2)C(=O)[C@@H](C)C1 [cycloheximide, reference compound]
IKKy/NEMO; cycloheximide 10 μg/ml
  inhibition of cellular protein translation (positive control): powerful inhibition of protein translation
[1]; cycloheximide 10 μM / 10 μg/ml
  effect on in vitro protein translation (positive control): potently suppressed formation of newly synthesized proteins

From US20120040956A1, “INHIBITORS OF HIF-1 PROTEIN ACCUMULATION” (INTERMED DISCOVERY GMBH, priority 2008, published 2012)
